According to patent EP4572800B1, “TETRAZINES WITH IMPROVED PROPERTIES” (Tagworks Pharmaceuticals B.V., priority 2023, dated 2024):

What was measured:
[1] = tested on: calcium channel L-type, dihydropyridine; assay: Transporter ligand binding inhibition, calcium channel L-type; set-up: species or system rats; settings: for % Calcium channel L-type dihydropyridine inhibition: final concentration of tetrazine 10 µM, rat, ligand binding
Protocol: (§1) In this Example, the inhibition of several physiologically relevant target proteins (viz. enzymes and a transporter) by tetrazines were tested in vitro. The enzymes tested were cyclooxygenase (COX-1), acetyl cholinesterase (ACES), and monoamine oxidase (MAO-B), and the tested transporter was calcium channel L-type, dihydropyridine. COX-1, ACES, and MAO-B from humans was used, while calcium channel L-type, dihydropyridine from rats was used. Standard literature protocols were used, and relevant controls were included to ensure the validity of the results. The target proteins were mixed with tetrazine 2.1 (reference), 2.4, 2.5, 2.7, or 2.10 (final concentration of tetrazine 10 µM) in appropriate buffers. The final concentrations for the respective target proteins depended on the standard protocol used, but for each individual target protein this concentration was the same for the different tetrazines tested. After an appropriate incubation time at an appropriate temperature, the enzymatic activity of the enzyme or the ligand binding in case of the transporter was tested in accordance with standard procedures from literature. From this remaining enzymatic activity or ligand binding, the percentage of inhibition was determined.

[2] = Maximum tolerated dose (MTD) study in mice, single intravenous dose; format: in vivo; settings: both sexes, Swiss albino, mouse, in vivo, iv, mice, single intravenous dose, observed up to 72 hours post-dose
Protocol: (§2) In this Example, groups of Swiss albino mice (an equal number of male and female animals) were subjected to a single dose of tetrazine 2.1 (reference), 2.4, 2.5, 2.7, or 2.10. Different groups were used for different doses. […] Control groups were also used, wherein mice were only administered vehicle (phosphate-buffered saline (PBS) pH 7.4) without tetrazine ("vehicle control").
(§3) Mice were treated in line with ethical guidelines. […] Environmental controls for the animal room were set to maintain a temperature of 22 to 25°C, humidity of 30-70% RH, and a 12-h light/12-h dark cycle.
(§4) The dose formulations were prepared as follows. Tetrazine 2.1 (reference), 2.4, 2.5, 2.7, or 2.10 was dissolved in PBS pH 7.4 to prepare separate stock solutions of each tetrazine. […] Further dilutions of the tetrazine stock solutions were done with PBS pH 7.4 to achieve a desired concentration.
(§5) Mice were dosed on day 1 by intravenously administering the dose formulation (expressed in µmol of tetrazine per kg body weight of the mouse). Thereafter, the mice were observed up to 72 hours post-dose for any signs of mortality. The number of dead mice after 72 hours ("mortality") was then divided by the original number of mice.

Swiss albino mice = assay: as above; format: in vivo; settings: 72 hours
Protocol: as §2, §3, §4, §5

[3] = target: T1, monoamine oxidase (MAO-B) (Homo sapiens, UniProt P27338); assay: Enzyme inhibition study, MAO-B; format: biochemical, humans; settings: for % MAO-B inhibition: final concentration of tetrazine 10 µM, human MAO-B
T1 sequence (P27338 1-520): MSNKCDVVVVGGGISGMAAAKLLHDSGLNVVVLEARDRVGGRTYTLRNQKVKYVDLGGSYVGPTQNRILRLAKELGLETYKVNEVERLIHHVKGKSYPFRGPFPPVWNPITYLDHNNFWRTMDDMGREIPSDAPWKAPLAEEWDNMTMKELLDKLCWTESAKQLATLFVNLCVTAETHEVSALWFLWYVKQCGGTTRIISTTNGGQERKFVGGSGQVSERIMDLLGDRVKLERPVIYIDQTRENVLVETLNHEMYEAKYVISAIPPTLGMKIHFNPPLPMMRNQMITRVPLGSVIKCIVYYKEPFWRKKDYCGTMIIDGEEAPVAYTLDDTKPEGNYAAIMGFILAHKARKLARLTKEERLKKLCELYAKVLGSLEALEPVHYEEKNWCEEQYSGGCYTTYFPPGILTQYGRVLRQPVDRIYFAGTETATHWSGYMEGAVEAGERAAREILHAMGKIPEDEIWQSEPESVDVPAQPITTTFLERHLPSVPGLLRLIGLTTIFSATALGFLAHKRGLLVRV
Protocol: as §1

[4] = target: acetyl cholinesterase (ACES) (Homo sapiens, UniProt P22303); assay: Enzyme inhibition study, ACES; format: biochemical, humans; settings: for % ACES inhibition: final concentration of tetrazine 10 µM, human ACES
Protocol: as §1

cyclooxygenase (COX-1) = cyclooxygenase (COX-1) (Homo sapiens, UniProt P23219); assay: Enzyme inhibition study, COX-1; format: biochemical, humans; settings: for % COX-1 inhibition: final concentration of tetrazine 10 µM, human COX-1
Protocol: as §1

Sequence of cyclooxygenase (COX-1) (P23219 24-599): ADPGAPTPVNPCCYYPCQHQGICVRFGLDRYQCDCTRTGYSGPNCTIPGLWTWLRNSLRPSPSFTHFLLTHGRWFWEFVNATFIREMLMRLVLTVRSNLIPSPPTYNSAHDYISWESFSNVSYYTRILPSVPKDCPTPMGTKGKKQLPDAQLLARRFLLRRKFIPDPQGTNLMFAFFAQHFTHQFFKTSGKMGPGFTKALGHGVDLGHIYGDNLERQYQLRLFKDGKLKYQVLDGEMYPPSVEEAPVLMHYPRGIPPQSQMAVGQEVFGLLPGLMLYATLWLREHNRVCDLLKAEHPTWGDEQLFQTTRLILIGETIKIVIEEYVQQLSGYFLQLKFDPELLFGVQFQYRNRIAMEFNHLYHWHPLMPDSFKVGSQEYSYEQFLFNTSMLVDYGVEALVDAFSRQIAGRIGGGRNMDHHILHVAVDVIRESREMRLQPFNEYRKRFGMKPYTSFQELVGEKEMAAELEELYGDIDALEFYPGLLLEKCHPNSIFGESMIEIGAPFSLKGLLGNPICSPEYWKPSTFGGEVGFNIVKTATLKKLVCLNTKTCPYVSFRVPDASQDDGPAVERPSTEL
Sequence of acetyl cholinesterase (ACES) (P22303 32-614): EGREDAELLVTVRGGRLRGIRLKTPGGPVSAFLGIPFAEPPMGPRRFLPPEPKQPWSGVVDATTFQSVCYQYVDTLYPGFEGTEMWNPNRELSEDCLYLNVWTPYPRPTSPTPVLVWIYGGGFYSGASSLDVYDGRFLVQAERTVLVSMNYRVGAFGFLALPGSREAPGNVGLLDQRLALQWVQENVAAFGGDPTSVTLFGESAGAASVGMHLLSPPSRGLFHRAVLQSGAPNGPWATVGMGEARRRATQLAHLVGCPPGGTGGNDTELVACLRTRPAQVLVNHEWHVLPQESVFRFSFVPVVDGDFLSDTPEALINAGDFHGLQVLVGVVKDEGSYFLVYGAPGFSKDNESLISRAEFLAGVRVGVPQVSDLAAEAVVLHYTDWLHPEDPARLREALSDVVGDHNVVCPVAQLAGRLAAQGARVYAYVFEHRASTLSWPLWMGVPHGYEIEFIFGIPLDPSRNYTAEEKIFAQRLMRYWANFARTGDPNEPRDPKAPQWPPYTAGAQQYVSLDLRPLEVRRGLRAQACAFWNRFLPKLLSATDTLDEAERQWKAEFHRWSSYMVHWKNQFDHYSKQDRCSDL

SMILES	% Calcium channel L-type dihydropyridine inhibition [1] [%]	MTD at 72 h [2] [µmol/kg]	% MAO-B inhibition [3] [%]	% ACES inhibition [4] [%]	% COX-1 inhibition (cyclooxygenase (COX-1)) [%]	further results
O=C(O)CN(CCN(CC(=O)O)CC(=O)Nc1ccc(-c2nnc(-c3ccccn3)nn2)nc1)CC(=O)O [2.4, 2,2'-((2-((Carboxymethyl)(2-oxo-2-((6-(6-(pyridin-2-yl)-1,2,4,5-tetrazin-3-yl)pyridin-3-yl)amino)ethyl)amino)ethyl)azanediyl)diacetic acid]	10	≥ 57	20	11	53	No. of mortality vs. total no. of mice (Swiss albino mice; 19 µmol/kg i.v. single dose): 0 out of 6; No. of mortality vs. total no. of mice (Swiss albino mice; 57 µmol/kg i.v. single dose): 0 out of 6; No. of mortality vs. total no. of mice (Swiss albino mice; 95 µmol/kg i.v. single dose): 4 out of 4
O=C(O)CCOCCOCCOCCC(=O)Nc1ccc(-c2nnc(-c3ccccn3)nn2)nc1 [2.7, 3-(2-(2-(3-Oxo-3-((6-(6-(pyridin-2-yl)-1,2,4,5-tetrazin-3-yl)pyridin-3-yl)amino)propoxy)ethoxy)ethoxy)propanoic acid]	-17		38	22	37	No. of mortality vs. total no. of mice (Swiss albino mice; 103 µmol/kg i.v. single dose): 0 out of 6; No. of mortality vs. total no. of mice (Swiss albino mice; 207 µmol/kg i.v. single dose): 0 out of 6; No. of mortality vs. total no. of mice (Swiss albino mice; 621 µmol/kg i.v. single dose): 0 out of 6
O=C([O-])CN(CCN(CC(=O)[O-])CC(=O)Nc1ccc(-c2nnc(-c3ccccn3)nn2)nc1)CC(=O)[O-].[Ca+2].[Na+] [2.5, Calcium sodium 2-({2-[bis(carboxylatomethyl)amino]ethyl)[({6-[6-(pyridin-2-yl)-1,2,4,5-tetrazin-3-yl]pyridin-3-yl}carbamoyl)methyl]amino)acetate]	1		9	-1	18	No. of mortality vs. total no. of mice (Swiss albino mice; 85 µmol/kg i.v. single dose): 0 out of 6; No. of mortality vs. total no. of mice (Swiss albino mice; 171 µmol/kg i.v. single dose): 0 out of 6; No. of mortality vs. total no. of mice (Swiss albino mice; 512 µmol/kg i.v. single dose): 0 out of 6
O=C(O)CN1CCN(CC(=O)O)CCN(CC(=O)NCCOCCOCCOCCOCCOCCOCCOCCOCCOCCOCCOCCNC(=O)CCCC(=O)Nc2ccc(-c3nnc(-c4ccccn4)nn3)nc2)CCN(CC(=O)O)CC1 [compound 2.1, 2,2',2''-(10-(2,40,44-Trioxo-44-((6-(6-(pyridine-2-yl)-1,2,4,5-tetrazin-3-yl)pyridine-3-yl)amino)-6,9,12,15,18,21,24,27,30,33,36-undecaoxa-3,39-diazatetratetracontyl)-1,4,7,10-tetraazacyclododecane-1,4,7-triyl)triacetic acid, reference compound]	44	~39	36	44	59	inhibition of calcium channel L-type, dihydropyridine, in words ([1]; statement in description): strongly inhibits; No. of mortality vs. total no. of mice (Swiss albino mice; 8 µmol/kg i.v. single dose): 0 out of 6; No. of mortality vs. total no. of mice (Swiss albino mice; 39 µmol/kg i.v. single dose): 0 out of 6; No. of mortality vs. total no. of mice (Swiss albino mice; 78 µmol/kg i.v. single dose): 4 out of 6; inhibition of monoamine oxidase (MAO-B), in words ([3]; statement in description): strongly inhibits; inhibition of acetyl cholinesterase (ACES), in words ([4]; statement in description): strongly inhibits; inhibition of cyclooxygenase (COX-1), in words (cyclooxygenase (COX-1); statement in description): strongly inhibits
O=C(O)CN(CC(=O)O)CC(=O)Nc1ccc(-c2nnc(-c3ccccn3)nn2)nc1 [2.10, 2,2'-((2-Oxo-2-((6-(6-(pyridin-2-yl)-1,2,4,5-tetrazin-3-yl)pyridin-3-yl)amino)ethyl)azanediyl)diacetic acid]	-3		22	5	14	No. of mortality vs. total no. of mice (Swiss albino mice; 118 µmol/kg i.v. single dose): 0 out of 6; No. of mortality vs. total no. of mice (Swiss albino mice; 177 µmol/kg i.v. single dose): 0 out of 6; No. of mortality vs. total no. of mice (Swiss albino mice; 236 µmol/kg i.v. single dose): 0 out of 6
